Common to all, as to assay type: in vivo, rat
The test system of assay [1] is SHR with heart failure. Briefly: Quantitative histological examination of myocardial fibrosis. Conditions: Table 3, 30 days treatment, mean ± SD. How it is done: We studied isolated papillary muscle function in the spontaneously hypertensive rat (SHR) which develops heart failure (HF) between 18-24 month of age. Four groups of SHR each consisting of six animals were examined: non-treated SHR with HF (SHR-F), age matched controls without HF (SHR-NF), and SHR with HF that were treated with the ACE inhibitor captopril (2 g/L in drinking water) (SHR-F+C) or captopril combined with the histone deacetylase inhibitor phenylbutyrate (6 g/L in drinking water) for 30 days (SHR-F+CP). […] Following treatment, hearts were isolated and contractile function of LV papillary muscles studied. LV weight and histology were assessed. RNA was isolated from 24 LV samples and subjected to individual Affymetrix (230 2.0) array analysis. Table 3 (below) summarizes the physiological, histological and gene expression findings from this study. […] SHR-F; see FIGS. 7A-7B).

In assay [2] the test system is SHR with heart failure. Briefly: Serial echocardiographic measurement of LV ejection fraction in SHR. Conditions: echocardiography, SHR-F following 30 days of treatment, n=6 per group. From the text: FIGS. 1A-1B illustrate serial echocardiographic measurements in SHR. LV ejection fraction (FIG. 1A) and end-systolic and end-diastolic LV volume (FIG. 1B) of male SHR during the transition to heart failure (12, 17, and 19 months of age). EF, LV ejection fraction (%); ESV, end-systolic volume (ml); EDV, end-diastolic volume (ml). LV function remains compensated until approximately 17 months, and then rapidly declines; mean age at onset of heart failure 19±1 months. FIGS. 2A-2B represent serial echocardiographic measurements (n=6 animals per group) of LV ejection fraction (LVEF) from individual SHR obtained before the onset of heart failure (Baseline), at the time of heart failure (HF) and following 30 days of treatment (Rx) with either captopril (CAPT—FIG. 2A) or combined captopril and phenylbutyrate treatment (CAPT+PB—FIG. 2B). Note marked reduction in LVEF with HF. […] FIG. 3 illustrates LV ejection fraction (LVEF) in non-failing SHR (SHR-NF), SHR with HF (SHR-F) and SHR-F following 30 days of captopril (CAPT) or combined phenylbutyrate and captopril treatment (CAPT+PB). […] Data are mean±SD (n=6 per group).

Assay [3] concerns spontaneously hypertensive rats (SHR) with heart failure. Nature of the assay: Body weight, cardiac chamber weights and hypertrophy indices in SHR with heart failure after 30 days of treatment. An excerpt:
Adult male spontaneously hypertensive rats (SHR) rats were purchased as retired breeders from Taconic Inc and boarded in the animal facility at the Boston VA Healthcare system until the time of study (18 to 24 months of age). Each rat was caged alone and allowed free access to chow and water. Animals were monitored several times per week for evidence of tachypnea and labored respiration; when these clinical findings were clearly in evidence, animals were either killed and studied or treated with captopril and/or phenylbutyrate. Groups of animals were treated by adding the angiotensin converting enzyme inhibitor captopril to the drinking water (2 g/L to drinking water) and/or phenylbutyrate to the drinking water (6 g/L to the drinking water; sodium 4-phenylbutyrate (Triple Crown America, Inc.)) when clinical evidence of impaired cardiac function was detected. Treatment was continued for 30 days, the animals closely monitored and then studied. A control group of age-matched, untreated SHR rats was used for comparison. At autopsy, animals were examined for pleural or pericardial effusions, atrial thrombi, and right and left ventricular hypertrophy. The heart was lightly blotted and weight, and individual cardiac chambers were quickly dissected, and chamber weight recorded. Left ventricular tissue samples were rapidly frozen and stored in liquid nitrogen for later mRNA analysis. Subsequently, total RNA was isolated from all left ventricular samples and subjected to individual Affymetrix (230 2.0) array analysis (performed at the Genomics Laboratory of Boston University School of Medicine, Boston Mass.). Six individual animals were included in each experimental group. Table 1 (below) summarizes body weight, cardiac chamber weight, and ratios with and without treatment. Referring to Table 1, four groups of six SHR/group were examined: non-treated SHR with heart failure (SHR-F), age matched controls without heart failure (SHR-NF), and SHR with heart failure treated with the angiotensin converting enzyme inhibitor captopril (2 g/L in drinking water) (SHR-F+C) or captopril combined with the histone deacetylase inhibitor phenylbutyrate (6 g/L in the drinking water) for 30 days (SHR-F+CP). […] It was observed that SHR rats with heart failure had enlarged hearts and increased cardiac chamber weights relative to non-failing SHR group and the captopril treated SHR groups. In contrast, the rats treated with phenylbutyrate and captopril had far smaller cardiac chamber weights. There were no significant differences in body weight among the experimental groups. Indices of cardiac hypertrophy (i.e. LV/body weight ratio and RV/body weight ratios) were reduced with phenylbutyrate treatment. Cardiac chamber weight to tibia length data confirmed these findings.

The subject of assay [4] is left ventricular papillary muscles from SHR with heart failure. Nature of the assay: Mechanical function of isolated left ventricular papillary muscles from treated SHR with heart failure. As for the experimental part:
At the time of sacrifice, left ventricular papillary muscles were dissected free and mounted in an isolated muscle bath containing oxygenated physiologic solution for assessment of mechanical function. Muscle mechanics were measured under computer control of force or length of the preparation. Force and length data were sampled at a rate of 1 kHz and stored on disk for later analysis.
Treatment was continued for 30 days and then the animals studied.
We studied isolated papillary muscle function in the spontaneously hypertensive rat (SHR) which develops heart failure (HF) between 18-24 month of age. […] Following treatment, hearts were isolated and contractile function of LV papillary muscles studied. LV weight and histology were assessed. RNA was isolated from 24 LV samples and subjected to individual Affymetrix (230 2.0) array analysis.

Assay [5] deals with left ventricular tissue from SHR with heart failure. Briefly: Affymetrix (230 2.0) array mRNA analysis of left ventricular tissue from treated SHR with heart failure. An excerpt: Adult male spontaneously hypertensive rats (SHR) rats were purchased as retired breeders from Taconic Inc and boarded in the animal facility at the Boston VA Healthcare system until the time of study (18 to 24 months of age). Each rat was caged alone and allowed free access to chow and water. Animals were monitored several times per week for evidence of tachypnea and labored respiration; when these clinical findings were clearly in evidence, animals were either killed and studied or treated with captopril and/or phenylbutyrate. Groups of animals were treated by adding the angiotensin converting enzyme inhibitor captopril to the drinking water (2 g/L to drinking water) and/or phenylbutyrate to the drinking water (6 g/L to the drinking water; sodium 4-phenylbutyrate (Triple Crown America, Inc.)) when clinical evidence of impaired cardiac function was detected. Treatment was continued for 30 days, the animals closely monitored and then studied. A control group of age-matched, untreated SHR rats was used for comparison. At autopsy, animals were examined for pleural or pericardial effusions, atrial thrombi, and right and left ventricular hypertrophy. The heart was lightly blotted and weight, and individual cardiac chambers were quickly dissected, and chamber weight recorded. Left ventricular tissue samples were rapidly frozen and stored in liquid nitrogen for later mRNA analysis. Subsequently, total RNA was isolated from all left ventricular samples and subjected to individual Affymetrix (230 2.0) array analysis (performed at the Genomics Laboratory of Boston University School of Medicine, Boston Mass.). Six individual animals were included in each experimental group. […] FIGS. 7A-7B provide a visual summary of the quantitative changes in transcripts observed with heart failure (SHR-F) compared to non-failing gene expression (SHR-F vs. SHR-NF) and those effects of treatment (SHR-F+C and SHR-F+CP) relative to un-treated SHR with heart failure. […] FIGS. 8A-8B provide a summary of the number of identified transcripts whose expression was reversed following treatment relative to un-treated SHR with failure. In contrast, phenylbutyrate when combined with captopril treatment reversed expression of more than 47% of heart failure-induced changes in gene expression (p<0.01). […] Analysis of pooled mRNA samples of right ventricular tissue indicate relatively few genes were differentially expressed between LV and RV tissue either with failure or treatment (data not shown). LV and RV are similarly affected by heart failure and amenable to therapeutic treatment effects. Taken together, these findings are consistent with the concept that phenylbutyrate acts as a wide scale inhibitor of transcription to reverse aspects of adverse remodeling and dysfunction associated with heart failure. […] We studied isolated papillary muscle function in the spontaneously hypertensive rat (SHR) which develops heart failure (HF) between 18-24 month of age. Four groups of SHR each consisting of six animals were examined: non-treated SHR with HF (SHR-F), age matched controls without HF (SHR-NF), and SHR with HF that were treated with the ACE inhibitor captopril (2 g/L in drinking water) (SHR-F+C) or captopril combined with the histone deacetylase inhibitor phenylbutyrate (6 g/L in drinking water) for 30 days (SHR-F+CP). […] Following treatment, hearts were isolated and contractile function of LV papillary muscles studied. LV weight and histology were assessed. RNA was isolated from 24 LV samples and subjected to individual Affymetrix (230 2.0) array analysis. Table 3 (below) summarizes the physiological, histological and gene expression findings from this study. […] SHR-F; see FIGS. 7A-7B).

The mark [6] stands for this setting: Table 1, SHR with heart failure, 30 days treatment, mean ± SD, n=6.
Where [7] appears, read: Table 2, LV papillary muscle after 30 days treatment, mean ± SD.
The mark [8] stands for this setting: Table 3, LV papillary muscle after 30 days treatment, mean ± SD.
Setting [9] is: Table 3, LV samples, p < 0.01 vs. SHR-F.
[10] abbreviates: of 1431 genes different between SHR-F and SHR-NF, p<0.01 vs. SHR-F.

“Also recorded” adds a separate entry of the source.

With `C[C@H](CS)C(=O)N1CCC[C@H]1C(=O)O` [captopril], the “Fibrosis (%)” value in assay [1] is given as 22.8 ± 3.1 %. Moreover, the “LV ejection fraction (LVEF), result in words” value in assay [2] is on record as “minimal improvement; also recorded: no significant change”. Also, the “LV/BW ratio, index of LV hypertrophy, result in words” value in assay [3] (FIG. 4A, SHR-F following 30 days of treatment) is given as “no significant reduction”. In addition, in assay [3] (FIG. 4B, SHR-F following 30 days of treatment), the “RV/BW ratio, index of RV hypertrophy, result in words” value was “decreased with treatment”. Also, in assay [3] (setting [6]), the “LV/body wt. (left ventricular to body weight ratio)” value is 3.3 ± 0.3^+ ratio and the “RV/body wt. (right ventricular to body weight ratio)” value is on record as 0.86 ± 0.20^+ ratio. The “LV/Body Weight (ratio)” value in assay [3] (Table 3, SHR with heart failure, 30 days treatment, mean ± SD) is 3.3 ± 0.4 ratio. Besides, the “quick release force-velocity (F-V) relationships from LV papillary muscles, result in words” value in assay [4] (FIG. 6A) is recorded as “not significantly increased”. In addition, the “active tension (AT) of LV papillary muscles, result in words” value in assay [4] (FIG. 6B) is “did not improve”. Further, the “contractile function and passive muscle stiffness, result in words” value in assay [4] (SHR with heart failure, 30 days treatment) is recorded as “did not restore contractile function or reduce passive muscle stiffness”. In assay [4] (setting [7]), the “+dT/dt (rate of tension development)” value turned out to be 28.4 ± 8.0 g/mm^2/s, the “AT (active tension)” value worked out at 2.7 ± 0.4 g/mm^2, the “Kwm (whole muscle stiffness)” value is 73.9 ± 4.2 and the “V1.0 (shortening velocity)” value is reported as 0.9 ± 0.2 muscle length/s. Besides, in assay [4] (setting [8]), the “AT (active tension)” value is 2.7 ± 0.4 g/mm^2 and the “V0.1 (shortening velocity)” value is on record as 0.9 ± 0.2 muscle lengths/s. Besides, in assay [5] (setting [9]), the “Gene Expression (number), down-regulated (↓) vs. SHR-F” value was 42 and the “Gene Expression (number), up-regulated (↑) vs. SHR-F” value came to 99. Also, in assay [5] (identified transcripts), the “number of identified genes down-regulated by treatment (overexpressed/induced with heart failure)” value was found to be 12 and the “number of identified genes up-regulated by treatment (repressed with heart failure)” value is recorded as 15. For the same molecule, the “number of identified genes whose expression was reversed by treatment” value in assay [5] (identified transcripts, relative to un-treated SHR with failure) came out at 27. Moreover, in assay [5] (setting [10]), the “number of genes whose change in expression was significantly reversed” value is listed as 141 and the “percentage of genes whose change in expression was significantly reversed” value came out at 9.8%. For the same molecule, the “transcripts significantly modified with treatment” value in assay [5] (of heart failure-altered transcripts, p<0.01) was < 2%.

(Values after patent US9226965B2, “Method and composition for treating heart failure” (U.S. DEPARTMENT OF VETERANS AFFAIRS, priority 2007, dated 2016).)
